Assay results taken from ChEMBL document CHEMBL3045415, “Synthesis, characterization and antimicrobial activities of some novel bis-chalcones” (2012).
≈ marks a conversion by molar mass, not a printed value. Calls of active or inactive are those of the source. No cut-off for these calls is given here.

Columns and labels:
Assay type in all cases: functional
Candida albicans [1] = experiment: Antifungal activity against Candida albicans ATCC 10231 after 24 hr by disk diffusion method; conditions: ATCC 10231, 24 h
Staphylococcus aureus [2] = experiment: Antibacterial activity against Staphylococcus aureus ATCC 29737 at 400 ug/ml after 24 hr by cup-plate agar method; conditions: for zone of inhibition at 400 µg/mL: ATCC 29737, 24 h, read-out: IZ
Escherichia coli [3] = experiment: Antibacterial activity against Escherichia coli ATCC 35218 after 24 hr by disk diffusion method; conditions: ATCC 35218, 24 h
Candida albicans [4] = experiment: Antifungal activity against Candida albicans ATCC 10231 at 400 ug/ml after 24 hr by cup-plate agar method; conditions: for zone of inhibition at 400 µg/mL: ATCC 10231, 24 h, read-out: IZ
Staphylococcus aureus [5] = experiment: Antibacterial activity against Staphylococcus aureus ATCC 29737 after 24 hr by disk diffusion method; conditions: ATCC 29737, 24 h
Escherichia coli [6] = experiment: Antibacterial activity against Escherichia coli ATCC 35218 at 400 ug/ml after 24 hr by cup-plate agar method; conditions: for zone of inhibition at 400 µg/mL: ATCC 35218, 24 h, read-out: IZ

Row | Compound | MIC (Candida albicans [1]) | zone of inhibition at 400 µg/mL (Staphylococcus aureus [2]) | MIC (Escherichia coli [3]) | zone of inhibition at 400 µg/mL (Candida albicans [4]) | MIC (Staphylococcus aureus [5]) | zone of inhibition at 400 µg/mL (Escherichia coli [6]) | inhibition zone (IZ) (Staphylococcus aureus [2]) | inhibition zone (IZ) (Escherichia coli [6]) | inhibition zone (IZ) (Candida albicans [4])
1 | O=C(/C=C/c1ccccc1)c1ccc(C(=O)/C=C/c2ccccc2)cc1 | 200 mg/L (≈ 591 µM) | 10 mm | 200 mg/L (≈ 591 µM) | 17 mm | 200 mg/L (≈ 591 µM) | 13 mm | – | – | –
2 | O=C(/C=C/c1ccccc1Cl)c1ccc(C(=O)/C=C/c2ccccc2Cl)cc1 | 100 mg/L (≈ 246 µM) | 10 mm | 100 mg/L (≈ 246 µM) | 12 mm | 200 mg/L (≈ 491 µM) | 27 mm | – | – | –
3 | COc1ccccc1/C=C/C(=O)c1ccc(C(=O)/C=C/c2ccccc2OC)cc1 | – | – | – | 9 mm | 300 mg/L (≈ 753 µM) | – | inactive | inactive | –
4 | O=C(/C=C/c1cccc(Br)c1)c1ccc(C(=O)/C=C/c2cccc(Br)c2)cc1 | 200 mg/L (≈ 403 µM) | 10 mm | 50 mg/L (≈ 101 µM) | – | – | 30 mm | – | – | inactive
5 | O=C(/C=C/c1ccccc1O)c1ccc(C(=O)/C=C/c2ccccc2O)cc1 | 100 mg/L (≈ 270 µM) | 13 mm | 50 mg/L (≈ 135 µM) | – | – | 30 mm | – | – | inactive
6 | O=C(/C=C/c1cccc([N+](=O)[O-])c1)c1ccc(C(=O)/C=C/c2cccc([N+](=O)[O-])c2)cc1 | – | – | – | – | – | – | inactive | inactive | inactive
7 | O=C(/C=C/c1ccc([N+](=O)[O-])cc1)c1ccc(C(=O)/C=C/c2ccc([N+](=O)[O-])cc2)cc1 | 200 mg/L (≈ 467 µM) | 10 mm | 50 mg/L (≈ 117 µM) | 25 mm | 50 mg/L (≈ 117 µM) | 13 mm | – | – | –
8 | O=C(/C=C/c1cccc(Cl)c1)c1ccc(C(=O)/C=C/c2cccc(Cl)c2)cc1 | – | – | 300 mg/L (≈ 737 µM) | 12 mm | 300 mg/L (≈ 737 µM) | 13 mm | inactive | – | –
9 | GENTAMICIN | – | – | – | – | – | – | 23 mm | 24 mm | –
10 | COc1ccc(/C=C/C(=O)c2ccc(C(=O)/C=C/c3ccc(OC)c(OC)c3)cc2)cc1OC | 200 mg/L (≈ 436 µM) | 11 mm | 100 mg/L (≈ 218 µM) | – | – | 30 mm | – | – | inactive
11 | O=C(/C=C/c1ccc(Cl)cc1)c1ccc(C(=O)/C=C/c2ccc(Cl)cc2)cc1 | 200 mg/L (≈ 491 µM) | 10 mm | 100 mg/L (≈ 246 µM) | 12 mm | 200 mg/L (≈ 491 µM) | 23 mm | – | – | –
12 | COc1ccc(/C=C/C(=O)c2ccc(C(=O)/C=C/c3ccc(OO)cc3)cc2)cc1 | – | – | – | 22 mm | 300 mg/L (≈ 749 µM) | – | inactive | inactive | –
13 | O=C(/C=C/c1ccccc1[N+](=O)[O-])c1ccc(C(=O)/C=C/c2ccccc2[N+](=O)[O-])cc1 | 100 mg/L (≈ 233 µM) | 15 mm | 100 mg/L (≈ 233 µM) | 15 mm | 100 mg/L (≈ 233 µM) | 21 mm | – | – | –
14 | C[C@@H]1[C@H](O)[C@@H](C)/C=C/C=C/C=C/C=C/C=C/C=C/C=C/[C@H](O[C@@H]2O[C@H](C)[C@@H](O)[C@H](N)[C@@H]2O)C[C@@H]2O[C@](O)(C[C@@H](O)C[C@@H](O)[C@H](O)CC[C@@H](O)C[C@@H](O)CC(=O)O[C@H]1C)C[C@H](O)[C@H]2C(=O)O [AMPHOTERICIN B] | – | – | – | 21 mm | – | – | – | – | –
15 | COc1cccc(/C=C/C(=O)c2ccc(C(=O)/C=C/c3cccc(OC)c3)cc2)c1 | – | – | – | – | – | – | inactive | inactive | inactive
16 | O=C(/C=C/c1ccc(Br)cc1)c1ccc(C(=O)/C=C/c2ccc(Br)cc2)cc1 | 200 mg/L (≈ 403 µM) | 9 mm | 50 mg/L (≈ 101 µM) | – | – | 30 mm | – | – | inactive
